The record followed here is patent US20100292205A1, “Pyrimidone Compounds As GSK-3 Inhibitors” (PFIZER INC., priority 2006, published 2010).

T1 sequence (P49841 whole entry): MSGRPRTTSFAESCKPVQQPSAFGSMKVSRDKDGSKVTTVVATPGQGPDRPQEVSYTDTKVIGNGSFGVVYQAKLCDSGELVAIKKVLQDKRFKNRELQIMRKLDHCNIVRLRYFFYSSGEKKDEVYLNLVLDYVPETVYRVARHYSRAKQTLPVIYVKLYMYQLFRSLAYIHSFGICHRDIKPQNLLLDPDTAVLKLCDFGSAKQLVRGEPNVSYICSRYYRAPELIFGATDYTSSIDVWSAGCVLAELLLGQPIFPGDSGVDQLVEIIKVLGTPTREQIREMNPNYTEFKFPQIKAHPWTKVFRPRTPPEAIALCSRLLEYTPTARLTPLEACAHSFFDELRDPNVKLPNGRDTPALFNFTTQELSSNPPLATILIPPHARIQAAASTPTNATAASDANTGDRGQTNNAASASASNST

One experiment addresses T1, Recombinant human GSK3β (Homo sapiens, UniProt P49841).
T1 construct: His-tag; made in house; host or cells: Sf9 insect cells / baculovirus
In words: GSK-3β (Glycogen Synthase Kinase) cell free enzyme assay. It is filed as biochemical. To be noted: 1 μM; Examples 157-199; read-out: Percent inhibition at 1 μM. An outline of the steps:
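Recombinant human GSK3β, expressed in SF9/baculovirus cells and His-tag purified on Ni-NTA Superflow, was preincubated with test agent for 30 minutes at room temperature. Substrate mix was then added to start the reaction in 8 mM MOPS (pH 7.0), 10 mM magnesium acetate, 0.2 mM EDTA, 1 mM DTT, 2 uM cold ATP, 0.025 uCi/well [33P]ATP (120 uL) and 1.0 uM biotinylated peptide. Reactions ran at RT for 60 min.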
Regarding `Cn1c(NC[C@H]2CCCN2S(=O)(=O)c2ccccc2)nc(-c2ccncc2)cc1=O` [Example 188, 3-Methyl-2-({[(2R)-1-(phenylsulfonyl)pyrrolidin-2-yl]methyl}amino)-6-pyridin-4-ylpyrimidin-4(3H)-one], the inhibition (in general, the percentage by which the read-out fell short of the control) at 1 µM turned out to be 94%.

On to `CCN(C[C@H]1CCCN1S(C)(=O)=O)c1nc(-c2ccncc2)cc(=O)n1C` [Example 166, 2-(Ethyl{[(2R)-1-(methylsulfonyl)pyrrolidin-2-yl]methyl}amino)-3-methyl-6-pyridin-4-ylpyrimidin-4(3H)-one], for which the inhibition at 1 µM is 74%. The same measure, in the same setting: the result for `Cn1c(NC[C@H]2CCCN2S(C)(=O)=O)nc(-c2ccncc2)cc1=O` [Example 168, 3-Methyl-2-({[(2R)-1-(methylsulfonyl)pyrrolidin-2-yl]methyl}amino)-6-pyridin-4-ylpyrimidin-4(3H)-one] reads 78%.

The experiment is the same for the next values; noted with them: 1 μM; Examples 201-221; read-out: Percent inhibition at 1 μM.
Take `COC(=O)N1CC(Nc2nc(-c3ccncc3)cc(=O)n2C)C1` [Example 209, Methyl 3-[(1-methyl-6-oxo-4-pyridin-4-yl-16-dihydropyrimidin-2-yl)amino]azetidine-1-carboxylate]: the inhibition at 1 µM turned out to be 80%. On to `CCN(c1nc(-c2ccncc2)cc(=O)n1C)C1CCN(C(=O)OC)CC1` [Example 217, Methyl 4-[ethyl(1-methyl-6-oxo-4-pyridin-4-yl-16-dihydropyrimidin-2-yl)amino]piperidine-1-carboxylate], for which the inhibition at 1 µM stood at 84%.

The same experiment, now with this note: 1 μM; Examples 236-262.
With “2-[(1R,5S)-3-Benzyl- 38- diazabicyclo[3.2.1]oct- 8-yl]-3-methyl-6- pyridin-4-ylpyrimidin- 4(3H)-one [Example 250]”, the “Percent inhibition at 1 μM” value is 69%.

The same experiment, now with this note: 1 μM; Examples 236-262; read-out: Percent inhibition at 1 μM.
With `Cn1c(N[C@@H]2CN(Cc3ccccc3)C[C@@H]2F)nc(-c2ccncc2)cc1=O` [Example 253, 2-{[(3R,4S)-1-Benzyl-4-fluoropyrrolidin-3-yl]amino}-3-methyl-6-pyridin-4-ylpyrimidin-4(3H)-one], the inhibition at 1 µM turned out to be 91%. For `CN(c1nc(-c2ccncc2)cc(=O)n1C)[C@@H]1CC[C@H]2N(Cc3ccccc3)CC[C@@]2(C)C1` [Example 258, 2-{[(3a,S5,R7,aR)-1-Benzyl-3a-methyloctahydro-1H-indol-5-yl](methyl)amino}-3-methyl-6-pyridin-4-ylpyrimidin-4(3H)-one], the inhibition at 1 µM was 43%. Same read-out and setting: to `CN(c1nc(-c2ccncc2)cc(=O)n1C)[C@H]1CC[C@H]2N(Cc3ccccc3)CC[C@@]2(C)C1` [Example 254, 2-{[(3a,S5,S7,aR)-1-Benzyl-3a-methyloctahydro-1H-indol-5-yl](methyl)amino}-3-methyl-6-pyridin-4-ylpyrimidin-4(3H)-one] belongs 47%.

Staying with this experiment, now noted: 1 μM; GSK-3β cell free enzyme assay; Examples 42-60; read-out: Percent inhibition at 1 μM.
As to `CC(=O)N[C@@H]1CC[C@@H](Nc2nc(-c3ccncc3)cc(=O)n2C)C1` [Example 60, N-{(1R,3R)-3-[(1-Methyl-6-oxo-4-pyridin-4-yl-16-dihydropyrimidin-2-yl)amino]cyclopentyl} acetamide], the inhibition at 1 µM was 77%.

The same experiment, now with this note: cell free enzyme assay; Examples 1-35.
As for `Cn1c(N[C@H]2[C@@H]3CN(C(=O)OC(C)(C)C)C[C@@H]32)nc(-c2ccncc2)cc1=O` [Example 2, tert-butyl (1R,5S,6s)-6-[(1-Methyl-6-oxo-4-pyridin-4-yl-1,6-dihydropyrimidin-2-yl)amino]-3-azabicyclo[3.1.0] hexane-3-carboxylate], the IC50 – broadly, the point on the concentration scale where inhibition reaches its midpoint – came to 2.2 nM. The same measure, in the same setting: the result for `Cn1c(NC2CCCCN(C(=O)OC(C)(C)C)C2)nc(-c2ccncc2)cc1=O` (stereo not drawn) [Example 20, tert-butyl 3-[(1-Methyl-6-oxo-4-pyridin-4-yl-1,6-dihydropyrimidin-2-yl)amino]azepane-1-carboxylate] reads 24.1 nM.

Regarding `Cn1c(NC[C@H]2CCCN2C(=O)OC(C)(C)C)nc(-c2ccncc2)cc1=O` [Example 32, tert-butyl (2R)-2-{[(1-Methyl-6-oxo-4-pyridin-4-yl-1,6-dihydropyrimidin-2-yl)amino]methyl} pyrrolidine-1-carboxylate], the IC50 came to 71 nM. With `Cn1c(N2[C@@H]3CC[C@H]2CC(n2cnc4ccccc42)C3)nc(-c2ccncc2)cc1=O` (stereo partly drawn) [Example 16, 2-[(1R,5S)-3-(1H-Benzimidazol-1-yl)-8-azabicyclo[3.2.1]oct-8-yl]-3-methyl-6-pyridin-4-ylpyrimidin-4(3H)-one], the IC50 worked out at 20.5 nM. Still for that read-out and setting: the result for `Cn1c(NCCc2nc(-c3ccccc3)cs2)nc(-c2ccncc2)cc1=O` [Example 29, 3-Methyl-2-{[2-(4-phenyl-1,3-thiazol-2-yl)ethyl]amino}-6-pyridin-4-ylpyrimidin-4(3H)-one] reads 16 nM.

Still in this experiment, the particulars now being: cell free enzyme assay; Examples 62-155.
Take `Cn1c(NC2CCN(C(=O)Cc3ccccc3)CC2)nc(-c2ccncc2)cc1=O` [Example 85, 3-Methyl-2-{[1-(phenylacetyl)piperidin-4-yl]amino}-6-pyridin-4-ylpyrimidin-4(3H)-one]: the IC50 amounted to 333 nM. Same read-out and setting: to `CN(c1nc(-c2ccncc2F)cc(=O)n1C)[C@H]1[C@@H]2CN(C(=O)c3ccc(C(F)(F)F)cc3)C[C@@H]21` [Example 122, 6-(3-Fluoropyridin-4-yl)-3-methyl-2-(methyl{(1R,5S,6s)-3-[4-(trifluoromethyl)benzoyl]-3-azabicyclo[3.1.0]hex-6-yl}amino)pyrimidin-4(3H)-one] belongs 15.1 nM. Same read-out and setting: the result for `Cn1c(NC2CCCN(C(=O)Cc3ccccc3)CC2)nc(-c2ccncc2)cc1=O` (stereo not drawn) [Example 80, 3-Methyl-2-{[1-(phenylacetyl)azepan-4-yl]amino}-6-pyridin-4-ylpyrimidin-4(3H)-one] reads 53.8 nM; that for `CC[C@@H](Oc1ccccc1)C(=O)N1C[C@@H]2[C@H](C1)[C@H]2N(C)c1nc(-c2ccncc2F)cc(=O)n1C` [Example 145, 6-(3-Fluoropyridin-4-yl)-3-methyl-2-{methyl[(1R,5S,6s)-3-(2-phenoxybutanoyl)-3-azabicyclo[3.1.0]hex-6-yl]amino}pyrimidin-4(3H)-one], 13.2 nM. On the same count and under the same terms, to `CN(c1nc(-c2ccncc2F)cc(=O)n1C)[C@H]1[C@@H]2CN(C(=O)c3ccoc3)C[C@@H]21` [Example 105, 6-(3-Fluoropyridin-4-yl)-2-{[(1R,5S,6s)-3-(3-furoyl)-3-azabicyclo[3.1.0]hex-6-yl](methyl)amino}-3-methylpyrimidin-4(3H)-one] belongs 8.81 nM. For the compound `COC(=O)CCC(=O)N1C[C@@H]2[C@H](C1)[C@H]2N(C)c1nc(-c2ccncc2F)cc(=O)n1C` [Example 129, Methyl 4-[(1R,5S,6s)-6-{[4-(3-fluoropyridin-4-yl)-1-methyl-6-oxo-1,6-dihydropyrimidin-2-yl](methyl)amino}-3-azabicyclo[3.1.0]hex-3-yl]-4-oxobutanoate], the IC50 is 84.4 nM. On the same count and under the same terms, the result for `Cn1c(NCC2CCN(C(=O)c3ccccc3)C2)nc(-c2ccncc2)cc1=O` (stereo not drawn) [Example 79, 2-{[(1-Benzoylpyrrolidin-3-yl)methyl]amino}-3-methyl-6-pyridin-4-ylpyrimidin-4(3H)-one] reads 69.9 nM.

`Cn1c(NC2CCN(C(=O)c3ccccc3)CC2)nc(-c2ccncc2)cc1=O` [Example 65, 2-[(1-Benzoylpiperidin-4-yl)amino]-3-methyl-6-pyridin-4-ylpyrimidin-4(3H)-one]: the IC50 turned out to be 202 nM. On the same count and under the same terms, to `CCN(c1nc(-c2ccncc2)cc(=O)n1C)C1CCN(C(=O)Cc2ccccc2)CC1` [Example 92, 2-{Ethyl[1-(phenylacetyl)piperidin-4-yl]amino}-3-methyl-6-pyridin-4-ylpyrimidin-4(3H)-one] belongs 105 nM; to `CCCCOc1ccc(C(=O)N2C[C@@H]3[C@H](C2)[C@H]3N(C)c2nc(-c3ccncc3F)cc(=O)n2C)cc1` [Example 123, 2-{[(1R,5S,6s)-3-(4-Butoxybenzoyl)-3-azabicyclo[3.1.0]hex-6-yl](methyl)amino}-6-(3-fluoropyridin-4-yl)-3-methylpyrimidin-4(3H)-one], 13.6 nM.

The experiment is the same for the next values; noted with them: cell free enzyme assay; Examples 222-234.
For the compound `COC(=O)N1CCCC(N(C)c2nc(-c3ccncn3)cc(=O)n2C)C1` (stereo not drawn) [Example 223, Methyl 3-[methyl(1-methyl-6-oxo-1,6-dihydro-4,4′-bipyrimidin-2-yl)amino]piperidine-1-carboxylate], the IC50 turned out to be 1.04 nM. On to `CCOC(=O)N1CCC[C@@H](N(C)c2nc(-c3ccncc3)cc(=O)n2C)C1` [Example 231, Ethyl (3R)-3-[methyl(1-methyl-6-oxo-4-pyridin-4-yl-1,6-dihydropyrimidin-2-yl)amino]piperidine-1-carboxylate], for which the IC50 was found to be 1.15 nM.

Staying with this experiment, now noted: cell free enzyme assay; Examples 265-291.
In the case of `CN(c1nc(-c2ccncc2F)cc(=O)n1C)[C@H]1[C@@H]2CN(c3nc4ccccc4s3)C[C@@H]21` [Example 283, 2-{[(1R,5S,6s)-3-(1,3-Benzothiazol-2-yl)-3-azabicyclo[3.1.0]hex-6-yl](methyl)amino}-6-(3-fluoropyridin-4-yl)-3-methylpyrimidin-4(3H)-one], the IC50 is 55.7 nM. `CN(c1nc(-c2ccncc2F)cc(=O)n1C)[C@H]1[C@@H]2CN(c3nc(C(F)(F)F)c(C(=O)OCc4ccccc4)s3)C[C@@H]21` [Example 268, Benzyl 2-[(1R,5S,6s)-6-{[4-(3-fluoropyridin-4-yl)-1-methyl-6-oxo-1,6-dihydropyrimidin-2-yl](methyl)amino}-3-azabicyclo[3.1.0]hex-3-yl]-4-(trifluoromethyl)-1,3-thiazole-5-carboxylate]: the IC50 was found to be 126 nM.

With `CN(c1nc(-c2ccncc2F)cc(=O)n1C)[C@H]1[C@@H]2CN(c3nc4ccc(F)cc4n3C)C[C@@H]21` [Example 269, 2-{[(1R,5S,6s)-3-(6-Fluoro-1-methyl-1H-benzimidazol-2-yl)-3-azabicyclo[3.1.0]hex-6-yl](methyl)amino}-6-(3-fluoropyridin-4-yl)-3-methylpyrimidin-4(3H)-one], the IC50 stood at 18.8 nM.
